Measured values published in ChEMBL document CHEMBL3045037, “Insecticidal and Neuroblocking Activities of Acetamiprid and Related Compounds” (J Pestic Sci, 2003).

Legend:
[1] = Lipophilicity, log P of the compound by HPLC based shake flask method; type: physicochemical
Periplaneta americana [2] = test: Insecticidal activity against adult male Periplaneta americana (American cockroach) dosed through injection into abdomen assessed as mortality measured 24 hr post dose; type: functional
Periplaneta americana [3] = test: Insecticidal activity against adult male Periplaneta americana (American cockroach) dosed through injection into abdomen assessed as mortality measured 24 hr post dose in presence of 50 ug metabolic inhibitor PB; type: functional
[4] = tested on: Abdominal central nerve cord; test: Neuroblocking activity in adult male Periplaneta americana (American cockroach) abdominal central nerve cords assessed as neuroblocking concentration measured at 22 to 25 degC; type: functional
Periplaneta americana [5] = test: Insecticidal activity against adult male Periplaneta americana (American cockroach) dosed through injection into abdomen assessed as mortality measured 24 hr post dose in presence of 50 ug metabolic inhibitor PB and 50 ug NIA; type: functional

Row | SMILES | logP [1] | log(1/MLD) (Periplaneta americana [2]) | log(1/MLD) (Periplaneta americana [3]) | log(1/BC) [4] | log(1/MLD) (Periplaneta americana [5])
1 | CN(Cc1ccc(Cl)nc1)/C(=N/C#N)c1ccccc1 | 1.86 | <6.39 | 6.48 | <3.39 | 6.99
2 | CCN(Cc1ccc(Cl)nc1)/C(C)=N/C#N | 1.19 | 7.14 | 7.63 | 5.87 | 9.24
3 | CCC/C(=N\C#N)N(C)Cc1ccc(Cl)nc1 | 1.55 | <6.58 | 6.68 | 3.78 | 7.77
4 | CCCCC/C(=N\C#N)N(C)Cc1ccc(Cl)nc1 | 2.3 | <6.2 | 6.2 | <3.2 | 6.8
5 | CCCN(Cc1ccc(Cl)nc1)/C(C)=N/C#N | 1.62 | 7.04 | 7.44 | 5.14 | 8.34
6 | CCCCCN(Cc1ccc(Cl)nc1)/C(C)=N/C#N | 2.37 | <6.9 |  | 5.01 | 7.8
7 | O=[N+]([O-])/N=C1\NCCN1Cc1ccc(Cl)nc1 [IMIDACLOPRID] | 0.6 | 8.96 | 9.26 | 5.64 | 10.15
8 | C/C(=N\C#N)NCc1ccc(Cl)nc1 | 1.07 | 6.4 | 6.7 | 3.7 | 7.5
9 | C/C(=N\C#N)N(C)Cc1ccc(Cl)nc1 [ACETAMIPRID] | 0.83 | 8.28 | 8.58 | 6.19 | 9.68
10 | CCCCN(Cc1ccc(Cl)nc1)/C(C)=N/C#N | 2.13 | <7.01 |  | 4.48 | 7.71
11 | CCCC/C(=N\C#N)N(C)Cc1ccc(Cl)nc1 | 1.87 | <6.37 | <6.37 | <3.37 | 6.77
12 | C/C(=N\C#N)N(Cc1ccc(Cl)nc1)C(C)C | 1.46 | 6.78 |  | 4.47 | 7.67
13 | CC(C)C/C(=N\C#N)N(C)Cc1ccc(Cl)nc1 | 1.75 | <6.3 | <6.3 | <3.3 | 6.9
14 | CN(Cc1ccc(Cl)nc1)/C(Cc1ccccc1)=N/C#N | 2.13 | <6.58 | <6.58 | <3.58 | 6.78
15 | CC(C)/C(=N\C#N)N(C)Cc1ccc(Cl)nc1 | 1.39 | 6.44 | 6.74 | 3.44 | 7.44
16 | C/C(=N\C#N)N(Cc1ccccc1)Cc1ccc(Cl)nc1 | 2.11 | 6.7 |  | 4.46 | 7.6
17 | CC/C(=N\C#N)N(C)Cc1ccc(Cl)nc1 | 1.12 | 7.24 | 7.64 | 5.23 | 8.54
18 | C=CCN(Cc1ccc(Cl)nc1)/C(C)=N/C#N | 1.56 | 7.07 |  | 5.46 | 8.07
